Converted amounts (≈) assume the structure as drawn. “And” between values parts separate entries of the source, which are not always exact repeats. Equal values may be shown once. Read-outs that look alike come from different tables or passages of the source.

The values below come from PMC2920549, “Bromopyrrole Alkaloids as Lead Compounds against Protozoan Parasites” (Marine Drugs, 2010).

Series [1] concerns T. b. rhodesiense STIB 900 bloodstream forms. The series is described as follows: Activity against Trypanosoma brucei rhodesiense (resazurin assay). The series is classed as cell-based. Particulars: for IC50: Trypanosoma brucei, read-out: IC50 T. b. rhodesiense. How it is done:
(§1) The toxicity on mammalian cells was assessed against L6 cells, a primary cell line derived from rat skeletal myoblasts.
STIB 900 strain of T. b. rhodesiense and the standard drug melarsoprol were used for the assay. […] Data were analyzed using the microplate reader software Softmax Pro (Molecular Devices Cooperation, Sunnyvale, CA, USA).
For orientation: The colour change of resazurin is a common sign of viable cells or microbes.

Series [2] concerns T. cruzi Tulahuen strain C2C4 intracellular amastigotes in L6 rat skeletal myoblasts. The series is described as follows: Activity against Trypanosoma cruzi (beta-galactosidase/CPRG assay in L6 cells). As to conditions: for IC50: Trypanosoma cruzi, TULAHUEN, L6, 96 h. The series is classed as cell-based. How it is done:
Then the substrate CPRG/Nonidet (50 μl) was added to all wells. A color reaction developed within 2–6 h and could be read photometrically at 540 nm. Data were transferred into the graphic programme Softmax Pro (Molecular Devices), which calculated IC50 values. […] Benznidazole was the standard drug used.

Series [3] has as its system L. donovani strain MHOM/ET/67/L82 axenic amastigotes. In words: Activity against Leishmania donovani (axenic amastigotes, resazurin). The format is cell-based. Particulars: for IC50: Leishmania donovani, read-out: IC50 L. donovani. The method, then:
as §1
Amastigotes of L. donovani strain MHOM/ET/67/L82 were grown in axenic culture at 37 °C in SM medium at pH 5.4 supplemented with 10% heat-inactivated fetal bovine serum under an atmosphere of 5% CO2 in air. One hundred μL of culture medium with 10^5 amastigotes from axenic culture with or without a serial drug dilution were seeded in 96-well microtiter plates. […] Data were analyzed using the software Softmax Pro. Decrease of fluorescence (=inhibition) was expressed as percentage of the fluorescence of control cultures and plotted against the drug concentrations. From the sigmoidal inhibition curves the IC50 values were calculated. […] Miltefosine was used as a reference drug.

Series [4] deals with P. falciparum K1 strain erythrocytic stages. In words: Activity against Plasmodium falciparum ([3H]-hypoxanthine incorporation). The series is classed as cell-based. As to conditions: erythrocytic stage; for IC50: Plasmodium falciparum, K1, K1 strain, read-out: IC50 P. falciparum. The method, then:
as §1
The radioactivity was counted using a Betaplate^TM liquid scintillation counter (Wallac, Zurich, Switzerland). […] IC50 values were calculated from graphically plotted dose-response curves.

Series [5] can be described thus: Cytotoxicity against L6-cells (resazurin). The series is classed as cell-based, rat. As to conditions: rat. How it is done:
as §1
(§2) Assays were performed in 96-well microtiter plates, each well containing 100 μL of RPMI 1640 medium supplemented with 1% L-glutamine (200 mM) and 10% fetal bovine serum, and 4 × 10^4 L-6 cells (a primary cell line derived from rat skeletal myoblasts). Serial drug dilutions of seven 3-fold dilution steps covering a range from 90 to 0.123 μg/mL were prepared. After 72 h of incubation the plates were inspected under an inverted microscope to assure growth of the controls and sterile conditions. 10 μl of a resazurin solution (12.5 mg resazurin dissolved in 100 mL distilled water) was then added to each well and the plates incubated for another 2 h. Then the plates were read with a Spectramax Gemini XS microplate fluorometer using an excitation wavelength of 536 nm and an emission wavelength of 588 nm. Data were analyzed using the microplate reader software Softmax Pro. Each CC50 value obtained is the mean of at least two separate experiments performed in duplicate. Podophyllotoxin was the standard drug used.

Series [6] relates to T. b. rhodesiense STIB 900 bloodstream forms. Also on record: method as in PMID 17765547. As to conditions: earlier study; cited from earlier work.
Series [7] relates to T. cruzi Tulahuen strain C2C4 intracellular amastigotes in L6 rat skeletal myoblasts. Also on record: method as in PMID 17765547. As to conditions: earlier study; cited from earlier work.
Series [8] deals with L. donovani strain MHOM/ET/67/L82 axenic amastigotes. Further details: method as in PMID 17765547. As to conditions: earlier study; cited from earlier work.
For series [9], the system named is P. falciparum K1 strain erythrocytic stages. Also on record: method as in PMID 17765547. As to conditions: earlier study; cited from earlier work.
Series [10] concerns L6 cells. Further details: method as in PMID 17765547. As to conditions: earlier study; cited from earlier work.
The test system of series [11] is PfFabI (enoyl-ACP reductase). Also on record: method as in PMID 17765547. As to conditions: previous project; cited from earlier work.
Series [12] has as its system L6 cells. The series is described as follows: Cytotoxicity against L6-cells (resazurin). The series is classed as cell-based, rat. Particulars: 72 h. The method, then: as §1, §2
Series [13] concerns the target T1, PfFabZ (β-hydroxyacyl-ACP dehydratase) (Plasmodium falciparum, UniProt Q965D7).
T1 construct: made in house
T1 sequence (Q965D7 19-230): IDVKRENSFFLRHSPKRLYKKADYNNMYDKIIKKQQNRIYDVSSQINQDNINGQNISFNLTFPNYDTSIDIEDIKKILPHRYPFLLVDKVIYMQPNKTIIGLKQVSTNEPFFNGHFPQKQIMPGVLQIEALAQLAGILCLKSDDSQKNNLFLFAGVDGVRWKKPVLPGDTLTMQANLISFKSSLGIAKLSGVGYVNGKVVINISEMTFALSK
In words: biochemical. As to conditions: read-out: IC50 PfFabZ (converted).
Procedure: Expression and purification of the PfFab enzymes as well as the assays were performed as described [29]. […] Measurements were carried out in Nundron Surface sterile 96-well plates, using 20 mM Hepes and 150 mM NaCl at pH 7.4. Compounds were dissolved in DMSO (maximum final concentration 1%). A dilution series of 50 μg/mL to 0.0005 μg/mL of dissolved compounds was measured. For PfFabI, 400 μM NADH (cofactor, Sigma) was added to 2 μg enzyme and reaction started by addition of 300 μM crotonyl-CoA (substrate, Sigma). The change of absorbance of the mixture was recorded spectrophotometrically at 340 nm for 40 minutes. Triclosan was used as a positive control and was analyzed the same way. For PfFabG 400 μM NADPH (cofactor, Fluka) was added to 0.5 μg enzyme and reaction started by addition of 300 μM acetoacetyl-CoA (substrate, Sigma). The change of absorbance of the mixture was recorded spectrophotometrically at 340 nm for 20 minutes. (-)-Epigallocatechin gallate (Sigma) was used as a positive control and was analyzed the same way. For PfFabZ, 600 μM crotonoyl-CoA (substrate, Sigma) was added to 0.5 μg enzyme. The change of absorbance of the mixture was recorded spectrophotometrically at 260 nm for 20 minutes. (−)-Epigallocatechin gallate was used as a positive control. IC50 values were estimated from graphically plotted dose-response curves. […]

[14] abbreviates: STIB 900 bloodstream forms, 72 h.

Turning to `Nc1ncc(C2=CCNC(=O)c3[nH]c(Br)c(Br)c32)[nH]1` [Compound 5, stevensine], the IC50 – broadly, the point on the concentration scale where inhibition reaches its midpoint – is 25.3 µg/mL (≈ 65.5 µM) in [1] (setting [14]); more than 90 µg/mL in series [2]; 75.9 µg/mL (≈ 196 µM) in series [3] (72 h, axenic amastigotes, 72 h); 4.88 µg/mL (≈ 12.6 µM) in series [4]. The 50% cytotoxic concentration (CC50) – broadly, the concentration giving 50% cytotoxicity – at 72 h in [5] is more than 90 µg/mL.
For the molecule `NC1=NC(=O)/C(=C/C(O)CNC(=O)c2cc(Br)c[nH]2)N1` (stereo not shown) [Compound 4, dispacamide D], the 50% inhibitory concentration (IC50) was 68.2 µg/mL (≈ 199 µM) in series [1] (setting [14]); more than 90 µg/mL in series [2]; 53.8 µg/mL (≈ 157 µM) in series [3] (72 h, axenic amastigotes, 72 h); more than 20 µg/mL in [4]. The molecule further registered a half-maximal cytotoxic concentration (CC50) at 72 h in series [5] of more than 90 µg/mL.
`O=C(O)CC1CNC(=O)c2cc(Br)c(Br)n21` (stereo not shown) [Compound 8, longamide B]: in [1] (CC50 L6 cells divided by IC50 T. b. rhodesiense), the “Selectivity index (CC50 L6 / IC50 parasite) for T. brucei rhodesiense” value is 6.5. Besides, the half-maximal inhibitory concentration (IC50) in series [1] (setting [14]) was 1.53 µg/mL (≈ 4.35 µM); in series [2], more than 33 µg/mL; in series [3] (72 h, axenic amastigotes, 72 h), 3.85 µg/mL (≈ 10.9 µM); in [4] it was 7.46 µg/mL (≈ 21.2 µM). In series [2] (96 h), the “IC50 T. cruzi” value amounted to 33.03 µg/mL (≈ 93.8 µM). In addition, the “Selectivity index (CC50 L6 / IC50 parasite) for L. donovani” value in [3] (CC50 L6 cells divided by IC50 L. donovani) is listed as 2.6. Further, the 50% cytotoxic concentration (CC50) at 72 h in [5] was found to be 9.94 µg/mL (≈ 28.2 µM).
In the case of `Nc1ncc(/C=C/CNC(=O)c2cc(Br)c(Br)[nH]2)[nH]1` [Compound 1b, oroidin], the “IC50 T. b. rhodesiense” value in [6] is recorded as 12.20 ^1 μg/mL. Besides, the “IC50 T. cruzi” value in series [7] is given as >30 ^1 μg/mL. In addition, in series [8], the “IC50 L. donovani” value is 15.40 ^1 μg/mL. Moreover, the “IC50 P. falciparum” value in series [9] was 7.90 ^1 μg/mL. Besides, in [10], the “CC50 Cytotoxicity L6 cells” value was 76.40 ^1 μg/mL. For the same molecule, the “PfFabI inhibition (in words)” value in series [11] is recorded as “potent PfFAbI inhibitors”.
As for spongiacidin B [Compound 6], in series [1] (setting [14]), the “IC50 T. b. rhodesiense” value was 13.58 µg/mL and 13.48 µg/mL. Moreover, the “IC50 L. donovani” value in series [3] (axenic amastigotes, 72 h) is 41.59 µg/mL. In series [4] (K1 strain), the “IC50 P. falciparum” value is 1.34 µg/mL and 1.09 µg/mL. The “CC50 Cytotoxicity L6 cells” value in series [12] is 35.6 µg/mL and 35.61 µg/mL.
As to `COc1cc([C@@H]2c3cc4c(cc3[C@H](O)[C@H]3COC(=O)[C@H]23)OCO4)cc(OC)c1OC` [Podophyllotoxin, reference compound], the half-maximal cytotoxic concentration (CC50) at 72 h in series [5] (72 h, read-out: CC50 Cytotoxicity L6 cells) is 0.005 µg/mL (≈ 0.0121 µM).
Consider `N=C(N)NCCCC[C@H](NC(=O)c1cc(Br)c[nH]1)C(=O)O` [Compound 12, bromopyrrolohomoarginin], for which the 50% inhibitory concentration (IC50) in series [1] (setting [14]) is 67.1 µg/mL (≈ 186 µM); in [2], more than 90 µg/mL; in series [3] (72 h, axenic amastigotes, 72 h) it was 34.5 µg/mL (≈ 95.7 µM); in [4], more than 20 µg/mL; in series [13], 777 nM. In addition, the cytotoxic concentration (CC50) at 72 h in series [5] is 62.3 µg/mL (≈ 173 µM).
For `O=C(Cn1ccnc1[N+](=O)[O-])NCc1ccccc1` [Benznidazole, reference compound], in series [2], the half-inhibitory concentration (IC50) is 0.312 µg/mL (≈ 1.2 µM).
For `C[C@]1(COC(=O)c2cc(Br)c[nH]2)C[C@@H](C(=O)O)N=CN1` [Compound 13, manzacidin A], the IC50 in series [1] (setting [14]) was 73.8 µg/mL (≈ 214 µM); in series [2], more than 90 µg/mL; in [3] (72 h, axenic amastigotes, 72 h), 75.8 µg/mL (≈ 220 µM); in series [4] it was more than 20 µg/mL. This molecule came in with a CC50 at 72 h in series [5] of more than 90 µg/mL.
Turning to `Nc1ncc(/C=C/CNC(=O)c2cc(Br)c(Br)[nH]2)[nH]1` [Compound 1a, oroidin], the “IC50 T. b. rhodesiense” value in series [6] was 17.30 ^1 μg/mL. Moreover, in [7], the “IC50 T. cruzi” value is on record as >30 ^1 μg/mL. Besides, the “IC50 L. donovani” value in [8] was >30 ^1 μg/mL. Further, the “IC50 P. falciparum” value in series [9] is given as 3.90 ^1 μg/mL. In addition, the “CC50 Cytotoxicity L6 cells” value in [10] is 88.60 ^1 μg/mL. The “PfFabI inhibition (in words)” value in [11] is recorded as “potent PfFAbI inhibitors”.
With `O=C1NC[C@@H](O)n2c1cc(Br)c2Br` [Compound 9, longamide A], the concentration for half-maximal inhibition (IC50) in series [1] (setting [14]) was more than 90 µg/mL; in series [2], more than 90 µg/mL; in series [3] (72 h, axenic amastigotes, 72 h), more than 90 µg/mL; in series [4], more than 20 µg/mL. Further, the cytotoxic concentration (CC50) at 72 h in [5] was more than 90 µg/mL.
